Data from the NIST ThermoML archive (doi:10.1016/j.jct.2006.10.017).

Legend:
[1] = xn = mol fraction of the nth substance listed; details: 303.15 K, 101 kPa, Liquid
[2] = refractive index (Na D-line) (dimensionless); xn = mol fraction of the nth substance listed; details: 101 kPa, Liquid

COS(=O)(=O)[O-].Cn1cc[n+](C)c1 [1,3-dimethylimidazolium methylsulfate] + CCO
[1]
Details | mass density [kg/m3] | speed of sound [m/s]
x1 = 0.3317 | 1104 | 1465
x1 = 0.429 | 1156.5 | 1542
x1 = 0.5395 | 1203.8 | 1617
x1 = 0.6331 | 1236.3 | 1668
x1 = 0.7308 | 1264.8 | 1713
x1 = 0.8142 | 1285.7 | 1745
x1 = 0.9081 | 1306.1 | 1775
x1 = 0.9512 | 1314.5 | 1788
x1 = 1 | 1323.7 | 1801

refractive index, [2]
Details | 293.15 K | 298.15 K | 303.15 K
x1 = 0.0738 | 1.3881 | 1.38734 | 1.38689
x1 = 0.1356 | 1.40426 | 1.40398 | 1.40322
x1 = 0.2275 | 1.42272 | 1.42173 | 1.42109
x1 = 0.3317 | 1.43794 | 1.43648 | 1.4356
x1 = 0.429 | 1.44915 | 1.44761 | 1.44677
x1 = 0.5395 | 1.45944 | 1.45819 | 1.45699
x1 = 0.6331 | 1.4665 | 1.4651 | 1.46385
x1 = 0.7308 | 1.472 | 1.47068 | 1.4694
x1 = 0.8142 | 1.47624 | 1.47489 | 1.47353
x1 = 0.9081 | 1.48029 | 1.47895 | 1.47763
x1 = 0.9512 | 1.48211 | 1.48079 | 1.47949
x1 = 1 | 1.48392 | 1.4827 | 1.48129
